Laboratory results taken from article PMC6325233, “A Novel Actin Binding Drug with In Vivo Efficacy” (Antimicrobial Agents and Chemotherapy, 2018).

Key:
[1] = cited from earlier work
Procedure: Occidiofungin is a nonribosomally synthesized glycolipopeptide produced by the soil bacterium Burkholderia contaminans MS14 ([21]). It is a cyclic peptide with a base mass of 1,200 Da (Fig. 1) ([21]). Occidiofungin has a wide spectrum of activities against filamentous and nonfilamentous fungi and minimal toxicity in an animal system ([21], [22]). […] Occidiofungin, on the other hand, is well tolerated at 5 mg/kg or 20 mg/kg when administered intravenously or subcutaneously, respectively ([22], [25]). This dose is much higher than the MIC of occidiofungin against several fungal pathogens. ...

Fusarium oxysporum 27718 = assay: MIC susceptibility testing; type: cell-based; set-up: key to MIC, 50% inhibition: -: indicates absence of isolates with 50% inhibition endpoint; settings: CLSI M38-A2
Procedure: (§1) Occidiofungin was purified from a liquid culture of Burkholderia contaminans MS14 as previously described ([21]). MIC susceptibility testing was performed according to the CLSI M27-A3 and M38-A2 standards for the susceptibility testing of yeasts and filamentous fungi, respectively. S. cerevisiae deletion mutants were obtained from the commercially available BY4741 deletion library (Thermo Scientific).

[2] = tested on: Aspergillus fumigatus 28435; assay: MIC susceptibility testing; type: cell-based; set-up: key to MIC, 50% inhibition: -: indicates absence of isolates with 50% inhibition endpoint; settings: CLSI M38-A2
Procedure: as §1

Candida tropicalis 9624 = assay: MIC susceptibility testing; type: cell-based; set-up: key to MIC, 50% inhibition: -: indicates absence of isolates with 50% inhibition endpoint; settings: CLSI M27-A3
Procedure: as §1

Candida krusei 9541 = assay: MIC susceptibility testing; type: cell-based; set-up: key to MIC, 50% inhibition: -: indicates absence of isolates with 50% inhibition endpoint; settings: CLSI M27-A3
Procedure: as §1

[3] = tested on: Cryptococcus neoformans 28446; assay: MIC susceptibility testing; type: cell-based; set-up: key to MIC, 50% inhibition: -: indicates absence of isolates with 50% inhibition endpoint; settings: CLSI M27-A3; 72 hours
Procedure: as §1

Candida glabrata 25742 = assay: MIC susceptibility testing; type: cell-based; set-up: key to MIC, 50% inhibition: -: indicates absence of isolates with 50% inhibition endpoint; settings: CLSI M27-A3
Procedure: as §1

[4] = tested on: Cryptococcus neoformans 27708; assay: MIC susceptibility testing; type: cell-based; set-up: key to MIC, 50% inhibition: -: indicates absence of isolates with 50% inhibition endpoint; settings: CLSI M27-A3; 72 hours
Procedure: as §1

[5] = tested on: Rhizopus microsporus 27785; assay: MIC susceptibility testing; type: cell-based; set-up: key to MIC, 50% inhibition: -: indicates absence of isolates with 50% inhibition endpoint; settings: CLSI M38-A2
Procedure: as §1

Aspergillus flavus 28517 = assay: MIC susceptibility testing; type: cell-based; set-up: key to MIC, 50% inhibition: -: indicates absence of isolates with 50% inhibition endpoint; settings: CLSI M38-A2
Procedure: as §1

Mucor racemosus 27784 = assay: MIC susceptibility testing; type: cell-based; set-up: key to MIC, 50% inhibition: -: indicates absence of isolates with 50% inhibition endpoint; settings: CLSI M38-A2
Procedure: as §1

Fusarium solani 28386 = assay: MIC susceptibility testing; type: cell-based; set-up: key to MIC, 50% inhibition: -: indicates absence of isolates with 50% inhibition endpoint; settings: CLSI M38-A2
Procedure: as §1

[6] = tested on: Aspergillus fumigatus 28434; assay: MIC susceptibility testing; type: cell-based; set-up: key to MIC, 50% inhibition: -: indicates absence of isolates with 50% inhibition endpoint; settings: CLSI M38-A2
Procedure: as §1

Aspergillus flavus 28445 = assay: MIC susceptibility testing; type: cell-based; set-up: key to MIC, 50% inhibition: -: indicates absence of isolates with 50% inhibition endpoint; settings: CLSI M38-A2
Procedure: as §1

Aspergillus flavus 28455 = assay: MIC susceptibility testing; type: cell-based; set-up: key to MIC, 50% inhibition: -: indicates absence of isolates with 50% inhibition endpoint; settings: CLSI M38-A2
Procedure: as §1

[7] = tested on: Candida parapsilosis 28174; assay: MIC susceptibility testing; type: cell-based; set-up: key to MIC, 50% inhibition: -: indicates absence of isolates with 50% inhibition endpoint; settings: CLSI M27-A3
Procedure: as §1

Rhizopus oryzae 28403 = assay: MIC susceptibility testing; type: cell-based; set-up: key to MIC, 50% inhibition: -: indicates absence of isolates with 50% inhibition endpoint; settings: CLSI M38-A2
Procedure: as §1

[8] = tested on: Rhizopus microsporus 28506; assay: MIC susceptibility testing; type: cell-based; set-up: key to MIC, 50% inhibition: -: indicates absence of isolates with 50% inhibition endpoint; settings: CLSI M38-A2
Procedure: as §1

Mucor fragilis 27782 = assay: MIC susceptibility testing; type: cell-based; set-up: key to MIC, 50% inhibition: -: indicates absence of isolates with 50% inhibition endpoint; settings: CLSI M38-A2
Procedure: as §1

Substance: occidiofungin
- blood cells and blood chemistry [1]: no serious signs of toxicity
- toxicity at 5 mg/kg intravenous ([1]; intravenous, 5 mg/kg, mice): minimal induced toxicity
- well tolerated dose, intravenous ([1]; intravenous): 5 mg/kg
- blood chemistry and histopathology ([1]; mice, 5 mg/kg intravenous): a transient nonspecific stress response with no damage to organ tissues
- well tolerated dose, subcutaneous ([1]; subcutaneous): 20 mg/kg
- MIC, 50% inhibition (Fusarium oxysporum 27718; 24 hours): 2 µg/mL
- MIC, 100% inhibition (Fusarium oxysporum 27718; 24 hours): 4 µg/mL
- MIC, 50% inhibition (Fusarium oxysporum 27718; 48 hours): -
- MIC, 100% inhibition (Fusarium oxysporum 27718; 48 hours): 4 µg/mL
- MIC, 50% inhibition ([2]; 24 hours): -
- MIC, 100% inhibition ([2]; 24 hours): 2 µg/mL
- MIC, 50% inhibition ([2]; 48 hours): -
- MIC, 100% inhibition ([2]; 48 hours): 2 µg/mL
- MIC, 50% inhibition (Candida tropicalis 9624; 24 hours): -
- MIC, 100% inhibition (Candida tropicalis 9624; 24 hours): 2 µg/mL
- MIC, 50% inhibition (Candida tropicalis 9624; 48 hours): -
- MIC, 100% inhibition (Candida tropicalis 9624; 48 hours): 2 µg/mL
- MIC, 50% inhibition (Candida krusei 9541; 24 hours): 2 µg/mL
- MIC, 100% inhibition (Candida krusei 9541; 24 hours): 4 µg/mL
- MIC, 50% inhibition (Candida krusei 9541; 48 hours): -
- MIC, 100% inhibition (Candida krusei 9541; 48 hours): 4 µg/mL
- MIC, 50% inhibition [3]: -
- MIC, 100% inhibition [3]: 1 µg/mL
- MIC, 50% inhibition (Candida glabrata 25742; 24 hours): -
- MIC, 100% inhibition (Candida glabrata 25742; 24 hours): 2 µg/mL
- MIC, 50% inhibition (Candida glabrata 25742; 48 hours): -
- MIC, 100% inhibition (Candida glabrata 25742; 48 hours): 2 µg/mL
- MIC, 50% inhibition [4]: -
- MIC, 100% inhibition [4]: 2 µg/mL
- MIC, 50% inhibition ([5]; 24 hours): 2 µg/mL
- MIC, 100% inhibition ([5]; 24 hours): 4 µg/mL
- MIC, 50% inhibition ([5]; 48 hours): -
- MIC, 100% inhibition ([5]; 48 hours): 8 µg/mL
- MIC, 50% inhibition (Aspergillus flavus 28517; 24 hours): -
- MIC, 100% inhibition (Aspergillus flavus 28517; 24 hours): 4 µg/mL
- MIC, 50% inhibition (Aspergillus flavus 28517; 48 hours): -
- MIC, 100% inhibition (Aspergillus flavus 28517; 48 hours): 4 µg/mL
- MIC, 50% inhibition (Mucor racemosus 27784; 24 hours): 2 µg/mL
- MIC, 100% inhibition (Mucor racemosus 27784; 24 hours): 4 µg/mL
- MIC, 50% inhibition (Mucor racemosus 27784; 48 hours): -
- MIC, 100% inhibition (Mucor racemosus 27784; 48 hours): 4 µg/mL
- MIC, 50% inhibition (Fusarium solani 28386; 24 hours): 2 µg/mL
- MIC, 100% inhibition (Fusarium solani 28386; 24 hours): 4 µg/mL
- MIC, 50% inhibition (Fusarium solani 28386; 48 hours): -
- MIC, 100% inhibition (Fusarium solani 28386; 48 hours): 4 µg/mL
- MIC, 50% inhibition ([6]; 24 hours): -
- MIC, 100% inhibition ([6]; 24 hours): 4 µg/mL
- MIC, 50% inhibition ([6]; 48 hours): -
- MIC, 100% inhibition ([6]; 48 hours): 4 µg/mL
- MIC, 50% inhibition (Aspergillus flavus 28445; 24 hours): 2 µg/mL
- MIC, 100% inhibition (Aspergillus flavus 28445; 24 hours): 4 µg/mL
- MIC, 50% inhibition (Aspergillus flavus 28445; 48 hours): -
- MIC, 100% inhibition (Aspergillus flavus 28445; 48 hours): 4 µg/mL
- MIC, 50% inhibition (Aspergillus flavus 28455; 24 hours): 2 µg/mL
- MIC, 100% inhibition (Aspergillus flavus 28455; 24 hours): 4 µg/mL
- MIC, 50% inhibition (Aspergillus flavus 28455; 48 hours): -
- MIC, 100% inhibition (Aspergillus flavus 28455; 48 hours): 4 µg/mL
- MIC, 50% inhibition ([7]; 24 hours): -
- MIC, 100% inhibition ([7]; 24 hours): 4 µg/mL
- MIC, 50% inhibition ([7]; 48 hours): -
- MIC, 100% inhibition ([7]; 48 hours): 4 µg/mL
- MIC, 50% inhibition (Rhizopus oryzae 28403; 24 hours): 4 µg/mL
- MIC, 100% inhibition (Rhizopus oryzae 28403; 24 hours): 8 µg/mL
- MIC, 50% inhibition (Rhizopus oryzae 28403; 48 hours): -
- MIC, 100% inhibition (Rhizopus oryzae 28403; 48 hours): 8 µg/mL
- MIC, 50% inhibition ([8]; 24 hours): 4 µg/mL
- MIC, 100% inhibition ([8]; 24 hours): 8 µg/mL
- MIC, 50% inhibition ([8]; 48 hours): -
- MIC, 100% inhibition ([8]; 48 hours): 8 µg/mL
- MIC, 50% inhibition (Mucor fragilis 27782; 24 hours): 2 µg/mL
- MIC, 100% inhibition (Mucor fragilis 27782; 24 hours): 4 µg/mL
- MIC, 50% inhibition (Mucor fragilis 27782; 48 hours): -
- MIC, 100% inhibition (Mucor fragilis 27782; 48 hours): 4 µg/mL
